Data: patent US20170266155A1, “METHOD FOR ENHANCING THE OXYGENATION LEVEL OF TISSUE CELLS AS AN ALTERNATIVE METHOD FOR HYPERBARIC OXYGEN THERAPY” (National Sun Yat-sen University, priority 2016, published 2017)
Each block holds one compound with its values, some of them ahead of it.

Target: hemoglobin (Hb) (Homo sapiens, UniProt P68871+P69905)
Assay: Oxygen equilibrium curves and P50 value of hemoglobin (Hb)
Type: biochemical
Conditions: for effect of phthalide compound together with 2,3-BPG on oxygen release efficiency of hemoglobin (Hb): combined with 2,3-BPG (FIG. 1)
Source text: The oxygen affinity of hemoglobin (Hb) is commonly characterized by P50 value. The P50 value is the required oxygen partial pressure to achieve 50% oxygen saturation of hemoglobin. […] An increased blood PCO2, a decreased pH or an increased 2,3-BPG level in erythrocytes can all decrease the oxygen affinity of hemoglobin (Hb), so that the oxygen equilibrium curve shifts to the right and the P50 value increases (as shown in FIG. 2); contrarily, when the oxygen affinity of hemoglobin (Hb) increases, the oxygen equilibrium curve shifts to the left and the P50 value decreases.
The oxygen affinity of hemoglobin (Hb) was commonly characterized by P50 value. The P50 value was the required oxygen partial pressure to achieve 50% oxygen saturation for hemoglobin. […] An increased blood PCO2, a decreased pH or an increased 2,3-BPG concentration in erythrocytes could decrease the oxygen affinity of hemoglobin (Hb), as a result, the oxygen equilibrium curve shifted to the right and the P50 value increased (as shown in FIG. 2); contrarily, when the oxygen affinity of hemoglobin (Hb) increased, the oxygen equilibrium curve shifted to the left and the P50 value decreased.

hemoglobin (Hb), sequence (P69905 2-142 limits assumed): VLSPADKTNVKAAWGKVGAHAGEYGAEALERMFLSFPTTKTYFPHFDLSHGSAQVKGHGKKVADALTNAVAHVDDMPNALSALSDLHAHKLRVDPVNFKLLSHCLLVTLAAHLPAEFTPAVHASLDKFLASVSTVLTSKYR
hemoglobin (Hb), sequence (P68871 2-147 limits assumed): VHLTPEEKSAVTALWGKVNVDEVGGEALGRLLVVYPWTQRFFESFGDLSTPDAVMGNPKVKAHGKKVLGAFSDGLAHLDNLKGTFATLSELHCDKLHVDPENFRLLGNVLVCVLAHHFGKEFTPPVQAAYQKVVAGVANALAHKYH

Structure (SMILES): CCC/C=C1\OC(=O)c2ccccc21 [Z-Butylidenephthalide, Z-butylidenephthalide]
effect on oxygen release efficiency of hemoglobin (Hb) from resulting P50 values (shortest detection time frame (30 minutes) (FIG. 2)): increasing the oxygen release efficiency of hemoglobin (Hb)

Structure (SMILES): CCC/C=C1\OC(=O)C2=C1CCC=C2 [Z-ligustilide]
effect of phthalide compound together with 2,3-BPG on oxygen release efficiency of hemoglobin (Hb): synergistic effect

oxygen saturation fraction of hemoglobin (Hb) (12 mM 2,3-BPG, fixed oxygen partial pressure of 20 mmHg, 80% where no 2,3-BPG is present (FIG. 3)): 35% | oxygen release efficiency of Hb (12 mM 2,3-BPG, oxygen partial pressure 20 mmHg, 20% without 2,3-BPG): 65% | P50 value / shift of oxygen equilibrium curve with concentration (2,3-BPG concentrations 0.2-12 mM (FIG. 3)): the P50 value is higher | oxygen release efficiency (PO2=20 mmHg, 1.2 mM 2,3-BPG alone): 40% | oxygen saturation fraction (PO2=20 mmHg, 1.2 mM 2,3-BPG alone (FIG. 6)): approximately 60% | P50 value of hemoglobin (Hb) (approximately 4 mM 2,3-BPG, no phthalide compound (FIG. 5)): 18.8 mmHg
Structure (SMILES): O=C(O)C(COP(=O)(O)O)OP(=O)(O)O (stereo not drawn) [2,3-BPG, 2,3-bisphosphorglycerate]

Structure (SMILES): CCC/C=C1\OC(=O)C2=C1CC[C@@H](O)[C@@H]2O [senkyunolide I]
effect of phthalide compound together with 2,3-BPG on oxygen release efficiency of hemoglobin (Hb): synergistic effect
